Experimental data taken from patent EP2814319B1, “ANTIMICROBIAL COMPOSITION CONTAINING PHOTOCHEMICALLY STABLE SILVER COMPLEXES” (NM Tech Nanomaterials and Microdevices Technology Ltd., priority 2012, dated 2013).

Assays:
[1] = tested on: Staphylococcus aureus (ATCC- 6538), Pseudomonas aeruginosa (ATCC - 15442); assay: Quantitative suspension test for bactericidal activity (UNI EN 1272:2009); format: cell-based
Protocol: The bactericidal activity was tested on freshly prepared aqueous solutions of the neutral Ag-L complex where the ligand L coordinated to the silver ion is 4-mercaptophenilboronic acid .
Additional tests were carried out on aqueous solutions containing the neutral Silver Ag-L complex and different cationic surfactants and, for purpose of comparison, on aqueous solutions containing only the cationic surfactants at the same concentration levels. It is in fact known that the cationic surfactants used for the purposes of the invention are endowed with antimicrobic activity on their own.
The bactericidal activity tests were carried out according to UNI EN 1272:2009 and UNI EN 13697:2001 standards, which make reference to chemical disinfectants and antiseptics, by using the following test organism: Staphylococcus aureus (ATCC- 6538), as representative of Gram-positive bacteria and Pseudomonas aeruginosa (ATCC - 15442), as representative of Gram-negative bacteria.
On such solutions it was in fact observed a maximum reduction of the bacterial count of ca 6-7 log.

[2] = Photochemical stability of aqueous solutions under ambient light exposure; format: physicochemical
Protocol: The observation that, after a 12 month period, in the presence of a cationic surfactant no precipitation and no formation of metallic Silver occur, confirms the relevant role of the cationic surfactants in determining the stabilization in solution of the neutral complex and the role of the ligand L in stabilizing photochemically the Ag^+ ion.
(§1) The neutral complex Ag-L with L = 4-mercaptophenilboronic acid was prepared by adding stoichiometric amounts of 4-mercaptophenylboronic acid to an aqueous solution of a silver salt, such as silver nitrate. […] The aqueous solution of the complex was stabilized by addition of Benzalkonium chloride up to reach a concentration of about 2 x 10^-2 M, which corresponds to the double of its critical micelle concentration.

Solubility in water = format: physicochemical; settings: without surfactant
Protocol: The complex of formula Ag-L can be prepared by adding stoichiometric amounts of 4-mercaptophenylboronic acid to an aqueous solution of a silver salt, such as silver nitrate. […] This complex can be solubilized in aqueous solution by addition of a cationic surfactant.
as §1

[3] = treating burns; decreased from 60%; cited from earlier work
[4] = tested on: Staphylococcus epidermidis; settings: cited from earlier work

With `OB(O)c1ccc([S][Ag])cc1` [AgL] the log reduction at 330 µM ([1]; Staphylococcus aureus, 0.5 h, concentration of the order of 3.3 x 10^-4 M in water, 30 min of contact, read-out: log reduction of bacterial count) was 2 to 3, the “change in color or composition” value ([2]; aqueous solution stabilized with Benzalkonium chloride about 2 x 10^-2 M, 12 months ambient light exposure) was “did not show any change in color or composition” and the solubility in water (Solubility in water) was “only partly soluble in water”.

With `O=[N+]([O-])[O-].[Ag+]` [Silver Nitrate, silver nitrate] the “log reduction of bacterial count” value ([1]; concentration of the order of 3.3 x 10^-4 M in water, 30 min of contact) was 2-3 log, the “antimicrobial activity after exposure to ambient light” value ([1]; solution of concentration comparable to 3.3 x 10^-4 M) was “lose the antimicrobial activity after exposure to ambient light” and the “formation of Ag° precipitate” value ([2]; aqueous solution, comparable conditions (ambient light exposure)) was “formation of a black Ag° precipitate after few minutes”. The “number of deaths that were a result of sepsis” value [3] was 28%.

For `[H]/N=C(\N/C(=N/[H])NCCCCCCNC(=N)NC(=N)Nc1ccc(Cl)cc1)Nc1ccc(Cl)cc1` [chlorhexidine], the development of resistance [4] is listed as “no evidence of resistance”.
